Patent US10538567B2, “Compounds as peptidic trigonal GLP1/glucagon/GIP receptor agonists” (priority 2016, dated 2020)
Numbered stars: 1 amine (or outer) side, 2 acyl side, 3 side chain; on linkers, the order of the positions; unused ones are H or OH. Square brackets hold non-standard residues; d marks the D form. Side chains are listed from the residue outwards. Peptide text beside a SMILES is read from it. * marks the point of attachment. γGlu = O=C(O)[C@H](CCC(=O)[*:2])N[*:1]; Palmitoyl = CCCCCCCCCCCCCCCC(=O)*; Aib = CC(C)(N)C(=O)O

Test system: not listed separately
Test: Thioflavin T (ThT) assay for physical stability (fibrillation)
Type: physicochemical
Conditions: 3 mg/ml, 100 mM acetate pH 4.5 with m-cresol, 37° C. shaking
Description: Low physical stability of a peptide solution may lead to amyloid fibril formation, which is observed as well-ordered, thread-like macromolecular structures in the sample, which eventually may lead to gel formation. Thioflavin T (ThT) is widely used to visualize and quantify the presence of misfolded protein aggregates. [Biancalana et al. (2010) Biochimica et Biophysica Acta. 1804 (7): 1405-1412]. […] Enzymol. 309, 274-284]. The time course for fibril formation often follows the characteristic shape of a sigmoidal curve and can be separated into three regions: a lag phase, a fast growth phase, and a plateau phase.
The typical fibril formation process starts with the lag phase in which the amount of partially folded peptide turned into fibrils is not significant enough to be detected. The lag-time corresponds to the time the critical mass of the nucleus is built. Afterwards, a drastic elongation phase follows and fibril concentration increases rapidly.
Investigations were carried out to determine fibrillation tendencies under stress conditions by shaking at 37° C. within Fluoroskan Ascent FL.
For the tests in Fluoroskan Ascent FL, 200 μL sample were placed into a 96 well mictrotiter plate PS, flat bottom, Greiner Fluotrac No. 655076. Plates were sealed with Scotch Tape (Quiagen). Samples were stressed by continuous cycles of 10 s shaking at 960 rpm and 50 s rest period at 37° C. The kinetic was monitored by measuring fluorescence intensity every 20 minutes.
Peptides were diluted in a buffer system to a final concentration of 3 mg/ml. 20 μL of a 10.1 mM ThT solution in H2O were added to 2 mL of peptide solution to receive a final concentration of 100 μM ThT. For each sample eight replicates were tested.
Tht buffer system A) 100 mM Acetate pH 4.5 including m-cresol (100 mM Natriumacetat trihydrat, pH adjustment using 2N CH3COOH, 2.7 mg/mL m-cresol) Tht buffer system B) 100 mM citrate buffer pH 6.0
Lag time in hours in Thioflavin T (ThT) assay of peptide samples was determined in ThT buffer system A as described in Methods.

Lag time before increase	Structure (SMILES)
>45 h	CCCCCCCCCCCCCCCC(=O)N[C@@H](CCC(=O)NCCCC[C@H](NC(=O)[C@H](CC(C)C)NC(=O)[C@H](CCCCN)NC(=O)[C@H](CO)NC(=O)[C@H](CC(C)C)NC(=O)[C@H](CC(=O)O)NC(=O)[C@H](CO)NC(=O)[C@@H](NC(=O)[C@H](Cc1ccccc1)NC(=O)[C@@H](NC(=O)CNC(=O)[C@H](Cc1c[nH]cn1)NC(=O)C(C)(C)NC(=O)[C@@H](N)Cc1c[nH]cn1)[C@@H](C)O)[C@@H](C)O)C(=O)N[C@@H](CCC(=O)O)C(=O)N[C@@H](CCC(=O)O)C(=O)N[C@@H](CCC(N)=O)C(=O)N[C@@H](CCCNC(=N)N)C(=O)N[C@@H](CCC(N)=O)C(=O)NC(C)(C)C(=O)N[C@@H](CCC(=O)O)C(=O)N[C@@H](Cc1ccccc1)C(=O)N[C@H](C(=O)N[C@@H](CCC(=O)O)C(=O)N[C@@H](Cc1c[nH]c2ccccc12)C(=O)N[C@@H](CC(C)C)C(=O)N[C@@H](CCCCN)C(=O)N[C@@H](C)C(=O)N[C@H](C)C(=O)NCC(=O)N1CCC[C@H]1C(=O)N1CCC[C@H]1C(=O)N[C@@H](CO)C(=O)NC(C)(C)C(=O)N[C@@H](CCCCN)C(=O)N1CCC[C@H]1C(=O)N1CCC[C@H]1C(=O)N1CCC[C@H]1C(=O)N[C@@H](CCCCN)C(N)=O)[C@@H](C)CC)C(=O)O [SEQ ID NO: 16, H-Aib-H-G-T-F-T-S-D-L-S-K-L-K[gGlu-Palm]-E-E-Q-R-Q-Aib-E-F-I-E-W-L-K-A-dAla-G-P-P-S-Aib-K-P-P-P-K-NH2] (H-H[Aib]HGTFTSDLSKLK([γGlu-Palmitoyl])EEQRQ[Aib]EFIEWLKA[dA]GPPS[Aib]KPPPK-NH2)
>45 h	CCCCCCCCCCCCCCCC(=O)N[C@@H](CCC(=O)NCCCC[C@H](NC(=O)[C@H](CC(C)C)NC(=O)[C@H](CCCCN)NC(=O)[C@H](CO)NC(=O)[C@H](CC(C)C)NC(=O)[C@H](CC(=O)O)NC(=O)[C@H](CO)NC(=O)[C@@H](NC(=O)[C@H](Cc1ccccc1)NC(=O)[C@@H](NC(=O)CNC(=O)[C@H](Cc1c[nH]cn1)NC(=O)C(C)(C)NC(=O)[C@@H](N)Cc1c[nH]cn1)[C@@H](C)O)[C@@H](C)O)C(=O)N[C@@H](CCC(=O)O)C(=O)N[C@@H](CCC(=O)O)C(=O)N[C@@H](CCC(N)=O)C(=O)N[C@@H](CCCNC(=N)N)C(=O)N[C@@H](CCC(N)=O)C(=O)NC(C)(C)C(=O)N[C@@H](CCC(=O)O)C(=O)N[C@@H](Cc1ccccc1)C(=O)N[C@H](C(=O)N[C@@H](CCC(=O)O)C(=O)N[C@@H](Cc1c[nH]c2ccccc12)C(=O)N[C@@H](CC(C)C)C(=O)N[C@@H](CCCCN)C(=O)N[C@@H](C)C(=O)NCC(=O)NCC(=O)N1CCC[C@H]1C(=O)N1CCC[C@H]1C(=O)N[C@@H](CO)C(=O)NC(C)(C)C(=O)N[C@@H](CCCCN)C(=O)N1CCC[C@H]1C(=O)N1CCC[C@H]1C(=O)N1CCC[C@H]1C(=O)N[C@@H](CCCCN)C(N)=O)[C@@H](C)CC)C(=O)O [SEQ ID NO: 18, H-Aib-H-G-T-F-T-S-D-L-S-K-L-K[gGlu-Palm]-E-E-Q-R-Q-Aib-E-F-I-E-W-L-K-A-G-G-P-P-S-Aib-K-P-P-P-K-NH2]

Test system: female diabetic db/db mice
Test: Acute effects after s.c. treatment on blood glucose in non-fasting female diabetic db/db mice
Type: in vivo
Conditions: single 30 μg/kg s.c.
Description: Female healthy, lean BKS.Cg-(lean)/OlaHsd and diabetes-prone, obese BKS.Cg-+Lepr^db/+Lepr^db/OlaHsd mice were ordered group housed from Envigo RMS Inc., shipped group housed and remained group housed in shoebox caging with wood chip bedding until day 15 of the predose phase. At the study start mice were approximately 12 weeks old.
Mice were housed under vivarium conditions including a 12 h light/dark cycle (light phase 04:00 AM-4:00 PM), room temperatures between 23-26° C. and a relative humidity between 30-70%. All animals had free access to water and Purina Fomulab Diet 5008.
On predose day 9 blood glucose and body mass (approximately between 08:00-10:00 AM) as well as HbA1c measurements were performed. On day 15 of the predose phase animals were assigned to treatment groups (n=8) and to new cages to match mean HbA1c and body masses between all db/db groups. An age-matched lean group was included in the study as a healthy, lean reference.
Prior to day 1 of the dosing phase, the test article was diluted with Phosphate Buffered Saline (PBS, Gibco, without CaCl2 and MgCl2) to a concentration of 1 mg/mL and aliquots of this stock solution were stored at approximately ≤−60° C. On day 1 of the dosing phase the stock aliquot was thawed and the injected test article solution was prepared fresh by diluting it with PBS to achieve the desired concentration.
On Day 1 of the dosing phase db/db mice were either treated once with a s.c. injection of PBS-vehicle or 30 μg/kg test article. The lean reference group was treated once with a s.c. injection of PBS-vehicle. The dosing was initiated and completed between 08:00 and 10:00 AM. The applied volume was 5 ml/kg and the dose was adjusted to the most recent body mass recording of each individual.
Animals had unlimited access to water and feed during the experiment. On day 1 of the dosing phase approximately 5 μL of blood were collected via tail clips at minute −30 and 0 prior to any other inlife activities. At minute 0 mice received a s.c. dose of either PBS-vehicle or 30 μg/kg test article. Further blood samples were harvested at hour 0.25, 0.5, 1, 1.5, 2, 3, 4, 6, 8, and 24 post-dose. Glucose measurements were performed in whole blood using AlphaTRAK glucometers. If the glucose concentrations of two measurements differed by more than 20 mg/dL a third value was recorded. The Area Under the Curve (AUC) for blood glucose was calculated via the trapezoid method and for the duration of the 24 post-dose hours.
In the Figures data are depicted as means±SEM. […] A One Way Analysis of Variance and multiple comparisons (Dunnett's Method) were performed comparing the group of diabetic, obese db/db vehicle mice (n=8) with each diabetic, obese db/db test article treated mice (n=8). […] Non-diabetic, lean-vehicle group data are depicted in the Figures serving as a reference dataset for the non-obese, non-diabetic state.

Structure (SMILES)	mean blood glucose concentration 24 hours post-dose relative to baseline
CCCCCCCCCCCCCCCC(=O)N[C@@H](CCC(=O)NCCCC[C@H](NC(=O)[C@H](CC(C)C)NC(=O)[C@H](CCCCN)NC(=O)[C@H](CO)NC(=O)[C@H](CC(C)C)NC(=O)[C@H](CC(=O)O)NC(=O)[C@H](CO)NC(=O)[C@@H](NC(=O)[C@H](Cc1ccccc1)NC(=O)[C@@H](NC(=O)CNC(=O)[C@H](Cc1c[nH]cn1)NC(=O)C(C)(C)NC(=O)[C@@H](N)Cc1c[nH]cn1)[C@@H](C)O)[C@@H](C)O)C(=O)N[C@@H](CCC(=O)O)C(=O)N[C@@H](CCC(=O)O)C(=O)N[C@@H](CCC(N)=O)C(=O)N[C@@H](CCCNC(=N)N)C(=O)N[C@@H](CCC(N)=O)C(=O)NC(C)(C)C(=O)N[C@@H](CCC(=O)O)C(=O)N[C@@H](Cc1ccccc1)C(=O)N[C@H](C(=O)N[C@@H](CCC(=O)O)C(=O)N[C@@H](Cc1c[nH]c2ccccc12)C(=O)N[C@@H](CC(C)C)C(=O)N[C@@H](CCCCN)C(=O)N[C@@H](C)C(=O)N[C@H](C)C(=O)NCC(=O)N1CCC[C@H]1C(=O)N1CCC[C@H]1C(=O)N[C@@H](CO)C(=O)NC(C)(C)C(=O)N[C@@H](CCCCN)C(=O)N1CCC[C@H]1C(=O)N1CCC[C@H]1C(=O)N1CCC[C@H]1C(=O)N[C@@H](CCCCN)C(N)=O)[C@@H](C)CC)C(=O)O [SEQ ID NO: 16, H-Aib-H-G-T-F-T-S-D-L-S-K-L-K[gGlu-Palm]-E-E-Q-R-Q-Aib-E-F-I-E-W-L-K-A-dAla-G-P-P-S-Aib-K-P-P-P-K-NH2] (H-H[Aib]HGTFTSDLSKLK([γGlu-Palmitoyl])EEQRQ[Aib]EFIEWLKA[dA]GPPS[Aib]KPPPK-NH2)	at or close to baseline
